Data as given in BindingDB's records for doi:10.3109/14756366.2011.614607 (Ondokuz Mayis University, 2012).

target: Carbonic anhydrase 2 (Homo sapiens, UniProt P00918); test: CA Activity Assay; conditions: pH 7.4; 25 °C
Method: (§1) The enzymatic reaction, in a total volume of 3.0 mL, contained 1.4 mL 0.05M Tris-SO4 buffer (pH 7.4), 1mL 3 mM 4-nitrophenylacetate, 0.5 mL H2O and 0.1mL enzyme solution. A reference measurement was obtained by preparing the same cuvette without enzyme solution. The inhibitory effects of the sulphonamide derivatives were examined. All compounds were tested in triplicate at each concentration used. Different concentrations of the compounds were used.

SMILES | Ki [nM]
CCOC1Oc2ccccc2C(=O)/C1=C\Nc1ccc(S(N)(=O)=O)cc1 (centres undefined) [hCA inhibitor, 1] | 228
CCOC1Oc2c(Br)cccc2C(=O)/C1=C\Nc1ccc(S(N)(=O)=O)cc1 (centres undefined) [hCA inhibitor, 3] | 1130
CCOC1Oc2c(Br)cc(Br)cc2C(=O)/C1=C\Nc1ccc(S(N)(=O)=O)cc1 (centres undefined) [hCA inhibitor, 4] | 1860

target: Carbonic anhydrase 6 (Homo sapiens, UniProt P23280); test: CA Activity Assay; conditions: pH 7.4; 25 °C
Sequence (P23280 whole entry): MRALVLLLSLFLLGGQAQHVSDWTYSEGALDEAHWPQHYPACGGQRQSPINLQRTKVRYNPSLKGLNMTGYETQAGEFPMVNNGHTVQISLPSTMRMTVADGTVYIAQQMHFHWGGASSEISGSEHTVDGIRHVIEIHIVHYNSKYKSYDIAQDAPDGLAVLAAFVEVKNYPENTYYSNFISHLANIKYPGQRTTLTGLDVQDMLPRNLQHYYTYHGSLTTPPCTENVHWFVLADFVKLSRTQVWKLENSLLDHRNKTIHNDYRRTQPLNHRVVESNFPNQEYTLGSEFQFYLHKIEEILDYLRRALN
Method: as §1

SMILES | Ki [nM]
Cc1ccc(S(N)(=O)=O)cc1 | 21200
NS(=O)(=O)c1ccccc1 | 4110
Nc1ccc(S(N)(=O)=O)cc1 [aromatic sulfonamide compound 5] | 1210
NCc1ccc(S(N)(=O)=O)cc1 [aromatic sulfonamide compound 6] | 1010
CCOC1Oc2ccccc2C(=O)/C1=C\Nc1ccc(S(N)(=O)=O)cc1 (centres undefined) [hCA inhibitor, 1] | 943
CCOC1Oc2c(Br)cccc2C(=O)/C1=C\Nc1ccc(S(N)(=O)=O)cc1 (centres undefined) [hCA inhibitor, 3] | 2240
CCOC1Oc2c(Br)cc(Br)cc2C(=O)/C1=C\Nc1ccc(S(N)(=O)=O)cc1 (centres undefined) [hCA inhibitor, 4] | 4280

target: Carbonic anhydrase 1 (Homo sapiens, UniProt P00915); test: CA Activity Assay; conditions: pH 7.4; 25 °C
Sequence (P00915 whole entry): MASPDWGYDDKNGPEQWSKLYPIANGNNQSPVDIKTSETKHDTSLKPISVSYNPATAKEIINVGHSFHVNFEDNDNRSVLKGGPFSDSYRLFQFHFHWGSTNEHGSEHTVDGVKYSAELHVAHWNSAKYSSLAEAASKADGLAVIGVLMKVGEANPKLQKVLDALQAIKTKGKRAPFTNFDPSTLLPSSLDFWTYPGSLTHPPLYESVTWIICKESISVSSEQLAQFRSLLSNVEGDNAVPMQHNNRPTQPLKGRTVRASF
Method: as §1

SMILES | Ki [µM]
Cc1ccc(S(N)(=O)=O)cc1 | 118
CCOC1Oc2ccccc2C(=O)/C1=C\Nc1ccc(S(N)(=O)=O)cc1 (centres undefined) [hCA inhibitor, 1] | 13.7
CCOC1Oc2c(Br)cccc2C(=O)/C1=C\Nc1ccc(S(N)(=O)=O)cc1 (centres undefined) [hCA inhibitor, 3] | 48.1
CCOC1Oc2c(Br)cc(Br)cc2C(=O)/C1=C\Nc1ccc(S(N)(=O)=O)cc1 (centres undefined) [hCA inhibitor, 4] | 71.2
